From US12568967B2, “Compositions comprising pyridine carboxylate herbicides with synthetic auxin herbicides or auxin transport inhibitors” (priority 2018, dated 2026)

What was measured:
[1] = system: Ipomoea hederacea (ivyleaf morningglory, IPOHE); test: Greenhouse postemergence trial IPOHE; assay type: in vivo; conditions: MCPA EHE 280 g/ha (Table 41)
[2] = system: Cirsium arvense (Canadian thistle, CIRAR); test: Greenhouse postemergence trial CIRAR; assay type: in vivo
[3] = system: Glycine max (volunteer soybean, GLXMA); test: Greenhouse postemergence trial GLXMA; assay type: in vivo; conditions: MCPA EHE 280 g/ha (Table 41)
[4] = system: Rumex obtusifolius (broad-leaf dock, RUMOB); test: Greenhouse postemergence trial RUMOB; assay type: in vivo; conditions: MCPA EHE 280 g/ha (Table 41)
[5] = system: Hordeum vulgare (spring barley, HORVS); assay type: in vivo; conditions: HORVS; for % visual injury (Obs): alone 280 g/ha
[6] = system: Polygonum convolvulus (wild buckwheat, POLCO); test: Greenhouse postemergence trial POLCO; assay type: in vivo; conditions: for % visual injury (Obs): alone 280 g/ha
[7] = system: Matricaria chamomilla (wild chamomile, MATCH); test: Greenhouse postemergence trial MATCH; assay type: in vivo; conditions: for % visual injury (Obs): alone 280 g/ha;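 for all read-outs here: greenhouse plants sprayed at second to third true leaf stage, injury rated by eye 20-22 d later versus solvent-blank controls on 0–100 scale, 0 no injury, 100 complete kill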
[8] = system: Sinapis arvensis (wild mustard, SINAR); test: Greenhouse postemergence trial SINAR; assay type: in vivo; conditions: SINAR
[9] = system: Amaranthus retroflexus (pigweed, AMARE); test: Greenhouse postemergence trial AMARE; assay type: in vivo; conditions: for % visual injury (Obs): AMARE, alone 280 g/ha;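 for all read-outs here: Greenhouse-grown plants sprayed at second to third true leaf stage, injury rated by eye after 20-22 d versus solvent-blank sprayed controls, 0 = no injury, 100 = complete kill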
[10] = system: Kochia scoparia (kochia, KCHSC); test: Greenhouse postemergence trial KCHSC; assay type: in vivo; conditions: for % visual injury (Obs): alone 280 g/ha
Description: (§1) Seeds of the desired test plant species were planted in a 90:10% v/v (volume/volume) mixture of PRO-MIX® BX (Premier Tech Horticulture, Quakertown, PA, USA) and PROFILE® GREENS GRADE™ (Profile Products LLC, Buffalo Grove, IL, USA) planting mixture, which typically has a pH of 5.2 to 6.2 and an organic matter content of at least 50 percent, in plastic pots with a surface area of 103.2 square centimeters (cm^2). […] The plants were grown for 7-36 days (d) in a greenhouse with an approximate 14-hour (h) photo-period which was maintained at about 23° C. during the day and 22° C. during the night. Nutrients and water were added on a regular basis and supplemental lighting was provided with overhead metal halide 1000-Watt lamps as necessary. The plants were employed for testing when they reached the second or third true leaf stage.
(§2) Emulsifiable concentrates of each of each pyridine carboxylate herbicide (Compound A or Compound B) were prepared at 100 grams acid equivalent per liter (g ae/L). The emulsifiable concentrates also included a safener, cloquintocet-mexyl, at 120 grams active ingredient per liter (g ai/L), unless otherwise noted below. An aliquot of each emulsifiable concentrate was placed in a 25 mL glass vial and diluted with an aqueous mixture of 1.25% (v/v) ACTIROB® B esterified rapeseed oil (Bayer Crop Science, Research Triangle Park, NC, USA) or MSO® Concentrate with LECI-TECH® methylated soybean oil (Loveland Products, Loveland, CO, USA) to obtain concentrated stock solutions at the highest application rate for each herbicide, based upon a 12 milliliter (mL) application volume at a rate of 187 liters per hectare (L/ha). The concentrated stock solutions were further diluted with an aqueous mixture of 1.25% v/v ACTIROB® B or MSO® Concentrate with LECI-TECH® to obtain stock solutions at reduced application rates for each herbicide. Spray solutions of the herbicide combinations (Compound A or Compound B plus synthetic auxin herbicide or auxin transport inhibitor) were prepared by adding weighed amounts or aliquots of the synthetic auxin herbicide or auxin transport inhibitor to the stock solutions of Compound A or Compound B to form 12-mL spray solutions in two-way combinations.
(§3) The spray solutions were applied to the plant material with an overhead Mandel track sprayer equipped with 8002E nozzles calibrated to deliver 187 L/ha over an application area of 0.503 square meters (m^2) at a spray height of 18 inches (43 centimeters (cm)) above the average plant canopy. Control plants were sprayed in the same manner with the solvent blank. All pyridine carboxylate herbicide (component a) application rates are given as “g ae/ha” and all synthetic auxin herbicide or auxin transport inhibitor (component b) application rates are given as “g ai/ha.”
(§4) The treated plants and control plants were placed in a greenhouse as described above and watered by sub-irrigation to prevent wash-off of the test compounds. After 20-22 d, the condition of the test plants as compared with that of the control plants was determined visually and scored on a scale of 0 to 100 percent where 0 corresponds to no injury and 100 corresponds to complete kill.

[11] = system: Helianthus annuus (common sunflower, HELAN); test: Greenhouse postemergence trial HELAN; assay type: in vivo; conditions: MCPA EHE 280 g/ha (Table 41)
[12] = system: Brassica napus (winter rape, BRSNW); test: Greenhouse postemergence trial BRSNW; assay type: in vivo
Description: as §1, §2, §3, §4

[13] = system: Chenopodium album L. (common lambsquarters, CHEAL); test: Greenhouse postemergence trial CHEAL; assay type: in vivo; conditions: for % visual injury (Obs): CHEAL, alone 280 g/ha;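 for all read-outs here: greenhouse plants sprayed at second to third true leaf stage, injury rated by eye after 20-22 d versus solvent-blank sprayed controls, 0 = no injury, 100 = complete kill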
Description: (§5) The plants were grown for 7-36 days (d) in a greenhouse with an approximate 14-hour (h) photo-period which was maintained at about 23° C. during the day and 22° C. during the night. Nutrients and water were added on a regular basis and supplemental lighting was provided with overhead metal halide 1000-Watt lamps as necessary. The plants were employed for testing when they reached the second or third true leaf stage.
(§6) The emulsifiable concentrates also included a safener, cloquintocet-mexyl, at 120 grams active ingredient per liter (g ai/L), unless otherwise noted below.
(§7) Control plants were sprayed in the same manner with the solvent blank. All pyridine carboxylate herbicide (component a) application rates are given as “g ae/ha” and all synthetic auxin herbicide or auxin transport inhibitor (component b) application rates are given as “g ai/ha.”
as §4

[14] = system: Stellaria media (chickweed, STEME); test: Greenhouse postemergence trial STEME; assay type: in vivo
[15] = system: Triticum aestivum (spring wheat, TRZAS); assay type: in vivo; conditions: TRZAS; for % visual injury (Obs): alone 280 g/ha
[16] = system: Abutilon theophrasti (velvetleaf, ABUTH); test: Greenhouse postemergence trial ABUTH; assay type: in vivo; conditions: MCPA EHE 280 g/ha (Table 41)
[17] = system: Viola tricolor (wild pansy, VIOTR); test: Greenhouse postemergence trial VIOTR;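 note: greenhouse plants sprayed at second to third true leaf stage, injury rated visually after 20-22 d against solvent-blank sprayed controls, 0 meaning no injury and 100 complete kill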
[18] = system: Papaver rhoeas (corn poppy, PAPRH); test: Greenhouse postemergence trial PAPRH; assay type: in vivo; conditions: Papaver rhoeas, post-emergence; PAPRH; alone, 560 g/ha; read-out: % visual injury Obs
[19] = system: Brassica napus (spring rape, BRSNN); test: Greenhouse postemergence trial BRSNN; assay type: in vivo; conditions: BRSNN; alone 280 g/ha
[20] = system: Veronica hederifolia (ivyleaf speedwell, VERHE); test: Greenhouse postemergence trial VERHE; assay type: in vivo
[21] = system: Triticum aestivum (winter wheat, TRZAW); test: Greenhouse postemergence crop phytotoxicity TRZAW; assay type: in vivo; conditions: TRZAW; alone, 560 g/ha
Description: as §1, §2, §3, §4

[22] = system: Matricaria inodora (false chamomile, MATIN); test: Greenhouse postemergence trial MATIN; assay type: in vivo; conditions: Tripleurospermum inodorum, post-emergence; MATIN; alone, 560 g/ha; read-out: % visual injury Obs
[23] = system: Matricaria discoidea (pineapple weed, MATMT); test: Greenhouse postemergence trial MATMT; assay type: in vivo
Description: as §1, §2, §3, §4

[24] = system: Cyanus segetum (cornflower, CENCY); test: Greenhouse postemergence trial CENCY; assay type: in vivo; conditions: Centaurea cyanus, post-emergence; CENCY; alone, 560 g/ha; read-out: % visual injury Obs
[25] = system: Anthemis arvensis (field chamomile, ANTAR); test: Greenhouse postemergence trial ANTAR; assay type: in vivo; conditions: Anthemis arvensis, post-emergence; ANTAR; alone, 560 g/ha; read-out: % visual injury Obs
Description: as §1, §2, §3, §4

[26] = system: Lamium purpureum (purple deadnettle, LAMPU); test: Greenhouse postemergence trial LAMPU; conditions: Lamium purpureum, post-emergence, read-out: % visual injury Obs
[27] = system: Veronica persica (bird's-eye speedwell, VERPE); test: Greenhouse postemergence trial VERPE; assay type: in vivo
[28] = system: Viola arvensis (field violet, VIOAR); test: Greenhouse postemergence trial VIOAR; assay type: in vivo; conditions: Viola arvensis, post-emergence; VIOAR; alone, 560 g/ha; read-out: % visual injury Obs
[29] = system: Capsella bursa-pastoris (shepherd's purse, CAPBP); test: Greenhouse postemergence trial CAPBP; assay type: in vivo; conditions: Capsella bursa-pastoris, post-emergence; CAPBP; alone, 560 g/ha; read-out: % visual injury Obs
[30] = system: Salsola kali (Russian thistle, SASKR); test: Greenhouse postemergence trial SASKR; assay type: in vivo; conditions: SASKR;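 note: greenhouse plants sprayed at second or third true leaf stage, injury rated by eye after 20-22 d against solvent-blank controls, 0 meaning no injury, 100 complete kill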
Description: as §5, §6, §7, §4

[31] = system: Papaver rhoeas (corn poppy), herbicide-resistant (PAPRH-R); test: Greenhouse postemergence trial PAPRH-R; assay type: in vivo
Description: as §1, §2, §3, §4

[32] = system: Hordeum vulgare (winter barley, HORVW); test: Greenhouse postemergence crop phytotoxicity HORVW; assay type: in vivo; conditions: HORVW; alone, 560 g/ha

With `CCCCC(CC)COC(=O)COc1ccc(Cl)cc1C` (stereo not shown) [MCPA EHE] the “IPOHE % visual injury Obs” value [1] was 78%, the “% visual injury (Obs)” value ([2]; CIRAR, alone 280 g/ha) was 20% and the “CIRAR % visual injury Obs” value ([2]; MCPA EHE 280 g/ha (Table 41)) was 23%. For the same compound, the “GLXMA % visual injury Obs” value [3] was 30%, the “RUMOB % visual injury Obs” value [4] was 25% and the “% visual injury (Obs)” value [5] was 0%. The “POLCO % visual injury Obs” value ([6]; MCPA EHE 280 g/ha (Table 41)) was 0%, the “% visual injury (Obs)” value ([6]; POLCO) was 10% and the “% visual injury (Obs)” value ([7]; MATCH) was 20%. The “% visual injury (Obs)” value ([8]; alone 280 g/ha) was 80%, the “% visual injury (Obs)” value [9] was 50% and the “AMARE % visual injury Obs” value ([9]; MCPA EHE 280 g/ha (Table 41)) was 30%. For the same compound, the “% visual injury (Obs)” value ([10]; KCHSC) was 10%, the “KCHSC % visual injury Obs” value ([10]; MCPA EHE 280 g/ha (Table 41)) was 0% and the “HELAN % visual injury Obs” value [11] was 90%. For the same compound, the “% visual injury (Obs)” value ([12]; BRSNW, alone 280 g/ha) was 60%, the “% visual injury (Obs)” value [13] was 70% and the “CHEAL % visual injury Obs” value ([13]; MCPA EHE 280 g/ha (Table 41)) was 73%. The “STEME % visual injury Obs” value ([14]; MCPA EHE 280 g/ha (Table 41)) was 0%, the “% visual injury (Obs)” value [15] was 0% and the “ABUTH % visual injury Obs” value [16] was 5%. For the same compound, the “VIOTR % visual injury Obs” value ([17]; MCPA EHE 280 g/ha (Table 41)) was 0%.
`O=C(O)COc1nc(Cl)c(Cl)cc1Cl` [Triclopyr] was tested, and the pest or weed control at 560 g/ha ([2]; Cirsium arvense, post-emergence, CIRAR, alone, 560 g/ha, read-out: % visual injury Obs) was 75%, the pest or weed control at 560 g/ha [18] was 20% and the “% visual injury (Obs)” value [19] was 50%. The “% visual injury (Obs)” value [5] was 0%, the “% visual injury Obs” value ([5]; alone, 560 g/ha) was 0% and the pest or weed control at 560 g/ha ([6]; Fallopia convolvulus, post-emergence, POLCO, alone, 560 g/ha, read-out: % visual injury Obs) was 30%. The “% visual injury (Obs)” value ([6]; POLCO) was 13%, the “VERHE % visual injury Obs” value ([20]; Triclopyr 45 g/ha (Table 39)) was 10% and the “VERHE % visual injury Obs” value ([20]; Triclopyr 60 g/ha (Table 39)) was 15%. For the same compound, the pest or weed control at 560 g/ha ([20]; Veronica hederifolia, post-emergence, VERHE, alone, 560 g/ha, read-out: % visual injury Obs) was 65%, the “% visual injury (Obs)” value ([7]; MATCH) was 5% and the pest or weed control at 560 g/ha ([7]; Matricaria chamomilla, post-emergence, MATCH, alone, 560 g/ha, read-out: % visual injury Obs) was 40%. For the same compound, the “MATCH % visual injury Obs” value ([7]; Triclopyr 45 g/ha (Table 39)) was 10%, the “MATCH % visual injury Obs” value ([7]; Triclopyr 60 g/ha (Table 39)) was 10% and the “% visual injury Obs” value [21] was 0%. For the same compound, the pest or weed control at 560 g/ha [22] was 0%, the pest or weed control at 560 g/ha ([23]; Matricaria discoidea, post-emergence, MATMT, alone, 560 g/ha, read-out: % visual injury Obs) was 10% and the “MATMT % visual injury Obs” value ([23]; Triclopyr 45 g/ha (Table 39)) was 20%. For the same compound, the “MATMT % visual injury Obs” value ([23]; Triclopyr 60 g/ha (Table 39)) was 25%, the pest or weed control at 560 g/ha ([8]; Mutarda arvensis, post-emergence, alone, 560 g/ha, read-out: % visual injury Obs) was 100% and the pest or weed control at 560 g/ha [24] was 100%. For the same compound, the pest or weed control at 560 g/ha [25] was 40%, the pest or weed control at 560 g/ha [26] was 65% and the “VERVE % visual injury Obs” value ([27]; Triclopyr 45 g/ha (Table 39)) was 0%. The “VERVE % visual injury Obs” value ([27]; Triclopyr 60 g/ha (Table 39)) was 0%, the pest or weed control at 560 g/ha ([27]; Veronica persica, post-emergence, VERPE, alone, 560 g/ha, read-out: % visual injury Obs) was 60% and the “% visual injury (Obs)” value [9] was 45%. For the same compound, the pest or weed control at 560 g/ha [28] was 25%, the pest or weed control at 560 g/ha [29] was 75% and the pest or weed control at 560 g/ha ([10]; Bassia scoparia, post-emergence, KCHSC, alone, 560 g/ha, read-out: % visual injury Obs) was 75%. For the same compound, the “% visual injury (Obs)” value ([10]; KCHSC) was 23%, the “% visual injury (Obs)” value ([30]; alone 280 g/ha) was 45% and the pest or weed control at 560 g/ha ([30]; Salsola kali, post-emergence, alone, 560 g/ha, read-out: % visual injury Obs) was 50%. For the same compound, the plant injury at 560 g/ha ([12]; Brassica napus, post-emergence, BRSNW, alone, 560 g/ha, read-out: % visual injury Obs) was 60%, the “BRSNW % visual injury Obs” value ([12]; Triclopyr 45 g/ha (Table 39)) was 10% and the “BRSNW % visual injury Obs” value ([12]; Triclopyr 60 g/ha (Table 39)) was 10%. For the same compound, the pest or weed control at 560 g/ha ([31]; Papaver rhoeas, post-emergence, PAPRH-R, alone, 560 g/ha, read-out: % visual injury Obs) was 50%, the “PAPRH-R % visual injury Obs” value ([31]; Triclopyr 45 g/ha (Table 39)) was 10% and the “PAPRH-R % visual injury Obs” value ([31]; Triclopyr 60 g/ha (Table 39)) was 10%. The “% visual injury (Obs)” value [13] was 53%, the pest or weed control at 560 g/ha ([14]; Stellaria media, post-emergence, STEME, alone, 560 g/ha, read-out: % visual injury Obs) was 30% and the “% visual injury (Obs)” value [15] was 0%. The “% visual injury Obs” value ([15]; alone, 560 g/ha) was 0%, the “% visual injury Obs” value [32] was 0% and the pest or weed control at 560 g/ha ([17]; Viola tricolor, post-emergence, read-out: % visual injury Obs) was 70%.
